Measured values reported in patent publication US9782483B2, “Sigma ligands for the prevention and/or treatment of emesis induced by chemotherapy or radiotherapy” (Laboratories Del Dr. Esteve, S.A., priority 2010, dated 2017).

Legend:
[1] = during Patient-Controlled Analgesia Therapy; Tramèr et al. 1999; cited from earlier work
[2] = tested on: ferret (Mustela putorius furo); test: Antiemetic properties against cisplatin-induced emesis in the conscious, unrestrained ferret (telemetry); assay type: in vivo; details: cisplatin 5 mg/kg i.p., 80 mg/kg i.p., multiple dose regimen (9 treatments)
Method: The antiemetic properties of compound 63 were assessed in combination with intraperitoneal administration of the chemotherapeutic agent cisplatin in the conscious, unrestrained ferret (Mustela putorius furo).
At least 12 days before their first treatment, ferrets were surgically implanted with telemetry devices. Individual body weights were recorded before treatment, at the time of telemetry device implantation, one day before the initiation of treatment and after completion of the treatment session, at the time of euthanasia, for each animal respectively.
The animals were treated according to the following schedule: […]
Body temperature, abdominal pressure and activity of the abdominal muscle (EMG) were recorded in treated animals, on day 0 and day 7, respectively, starting approximately 1 hour before the first administration of the vehicle and the test item and for at least 72 hours following the first administration of the vehicle and the test item. […]
2.7 Administration of Emetogenic Item • Route: Intraperitoneal. • Method of administration: Bolus injection using a sterile syringe and needle introduced intraperitoneally into the pelvic area. • Frequency: One administration for each animal, on day 0 or 7, one hour after the first treatment with the test item • Volume of administration: 5 mL/kg. • Individual dose volumes were calculated using the latest recorded body weight. […]

Structure (SMILES)	antinausea effect [1]	number of emetic events during the delayed phase ([2]; delayed phase 18 to 72 hours, vs vehicle)	maximum total number of emetic events (EE) ([2]; delayed phase, between 62 and 63 hours)
Cc1nccn1CC1CCc2c(c3ccccc3n2C)C1=O (stereo not shown) [ondasetron]	no evidence of any antinausea effect	–	–
CN1[C@@H]2CC[C@H]1C[C@@H](OC(=O)c1c[nH]c3ccccc13)C2 [tropisetron]	no evidence of any antinausea effect	–	–
Cc1cc(OCCN2CCOCC2)nn1-c1ccc2ccccc2c1 [Compound 63, 4-{2-[5-Methyl-1-(naphthalen-2-yl)-1H-pyrazol-3-yloxy]ethyl}morpholine]	–	markedly decreased	39
